Data: article PMC9569768, “Selective Anti-Leishmanial Strathclyde Minor Groove Binders Using an N-Oxide Tail-Group Modification” (International Journal of Molecular Sciences, 2022)
Values after ≈ are worked out from the molar mass of the structure shown. Where two headings read alike, the source gives them in different places. Marks after values point to notes of the source that are not given here.

Tests used:
genomic DNA from salmon = test: UV-Vis DNA thermal melting, genomic DNA; type: binding; settings: 10 µM S-MGB, 0.02 mg/mL salmon gDNA
Procedure: Salmon DNA (D1626, Sigma-Aldrich) at 1 mg/mL in 1 mM phosphate buffer (pH 7.4) containing 0.27 mM KCl and 13.7 mM NaCl (P4417, Sigma-Aldrich) was annealed at 90 °C for 10 min. MGB-BP-3 at 10 mM in DMSO was diluted with the same phosphate buffer, and combined with the salmon DNA stock, to yield a single sample with 10 µM S-MGB and 0.02 mg/mL gDNA in 1 mM phosphate buffer containing 0.27 mM KCl and 13.7 mM NaCl. Control samples containing only MGB-BP-3 or gDNA were prepared, respectively. The samples were melted at a rate of 0.5 °C/min from 45 °C to 90 °C, with spectra recorded at 260 nm on a UV-1900 UV-vis spectrophotometer fitted with a Peltier temperature controller (Shimadzhu, Kyoto, Japan), using LabSolutions (Tm Analysis) software. The melting temperatures (Tms) of the MGB-BP-3:DNA complexes were determined by fitting a sigmoidal function using a Boltzmann distribution in OriginPro. Two independent experiments were carried out and the values quoted with an error no worse than ±0.5 °C.

[1] = system: DNA sequence 5′-CGCATATATGCG-3′; test: Native mass spectrometry of DNA binding stoichiometry; settings: 9 μM DNA, 100 μM S-MGB, 150 mM ammonium acetate
Procedure: DNA sample preparation: The DNA oligonucleotide sequence 5′-[…]-3′ was purchased in lyophilised form from Alpha DNA, Montreal, Canada, and used without further purification; its purity was assessed via NMR. We prepared 100 μM stock solutions of DNA with 150 mM ammonium acetate buffer solution (Fisher Scientific, Loughborough, Leicestershire, UK) and 2 mM potassium chloride solution (Fisher Scientific, Loughborough, Leicestershire, UK). This solution was annealed at 90 degrees for 10 min and allowed to cool to room temperature. A total of 10 mM S-MGB stock in 100% DMSO (Sigma-Aldrich, St. Louis, MO, USA) was diluted to a 1 mM S-MGB solution with 150 mM ammonium acetate. The final samples were prepared from this solution to yield final concentrations of 9 μM DNA, 100 μM KCl, 100 μM S-MGB and 1% DMSO. DNA solutions containing no S-MGB included 1% DMSO and were used as controls.
Mass spectrometry measurements: Native mass spectrometry experiments were carried out using a Synapt G2Si instrument (Waters, Manchester, UK) with a nanoelectrospray ionisation source (nESI). Mass calibration was performed using a separate infusion of NaI cluster ions. […]

S. aureus ATCC 43300 = test: Antibacterial assay (MIC, broth dilution); type: cell-based; settings: Staphylococcus aureus, read-out: S. aureus MIC
Procedure: The inhibition of bacterial growth was determined by OD600, using a Tecan Infinite M Nano plate reader. The percentage of growth inhibition was calculated for each well, using the negative control (medium only) and positive control (bacteria without inhibitors) on the same plate. […] Each MIC determination was carried out in triplicate, on separate days.

[2] = system: L. donovani LV82 luc1 (MHOM/ET/67:LV82); test: Anti-Leishmania assay, intracellular amastigotes in bone marrow-derived macrophages, luciferase readout; type: cell-based; settings: read-out: L. donovani IC50
Procedure: The compounds were screened in vitro for their antileishmanial activity against the intracellular amastigote stage. Briefly, bone marrow-derived macrophages (0.5 × 10^5 cells per well) were infected using a 20:1 host cell: parasite ratio with luciferase-expressing L. donovani LV82 luc1 (MHOM/ET/67:LV82). […] Amphotericin B solution was used as a positive control and was used at a starting concentration of 1 μM. The medium was removed from each sample at 72 h post-infection and replaced with 150 μL luciferin solution (150 μg mL^−1 luciferin in serum-free medium). The amount of bioluminescent signal emitted/well was determined and used to calculate the mean suppression in the bioluminescent signal for each test sample compared to the mean control values. The EC50 values were calculated and the mean EC50 was calculated from the three separate experiments.

[3] = system: bloodstream form T. b. brucei (Lister 427); design: method as in PMID 34447938; settings: data previously reported ref 19; cited from earlier work
d(5′-CGCATATATGCG-3′) = test: UV-Vis DNA thermal melting, short DNA oligo; type: binding; settings: 2 MGB: 1 DNA, 10 mM PBS pH 7.4, 50 mM NaCl
Procedure: The DNA oligonucleotide sequence 5′-[…]-3′ was purchased in lyophilised form from Alpha DNA, Canada, and used without further purification, with purity assessed via NMR. The DNA oligomer was melted at a rate of 0.5 °C/min in 10 mM PBS buffer solution (pH 7.4) with 50 mM NaCl on a Cary 300 BIO UV–visible spectrophotometer fitted with a Peltier temperature controller. The programs were set and the data were processed using Cary WinUV software. The duplex oligomer was made to a concentration of 6 × 10^−6 M, heated to 90 °C and allowed to cool to room temperature unaided. This was mixed with sufficient S-MGB to give the appropriate ratio of 2 MGB: 1 DNA. For the reference melting temperature, no S-MGB was added. Samples were heated from 10 °C to 90 °C and cooled from 90 °C to 10 °C, with the spectra being recorded at 260 nm during both of these cycles. The melting temperatures (Tm) of the duplex oligomers were determined by fitting a sigmoidal function using a Boltzmann distribution in OriginPro.

hERG ion channel [4] = molecular target: T1, hERG ion channel (Homo sapiens, UniProt Q12809); design: method as in PMID 22948178; settings: compounds at 10 μM; data previously reported ref 20; cited from earlier work
T1 construct: expressed in transfected cells; host or cells: HEK293 cells (gift of Dr. J. Mitcheson, University of Leicester)

hERG ion channel [5] = molecular target: T1, hERG ion channel; test: hERG cell-binding assay, [3H]-astemizole displacement in hERG-transfected HEK293 cells; settings: compounds at 10 μM
Procedure: hERG-transfected HEK293 cells were kindly gifted by Dr. J. Mitcheson, University of Leicester. The cell cultures were maintained in Gibco Dulbecco’s Modified Eagle Medium (D-MEM) + GlutaMAX1^TM medium supplemented with 10% foetal bovine serum ([…]), 1% penicillin–streptomycin and 0.8% Geneticin in a Sanyo humidified incubator (37 °C, 5% CO2). Once at 80–90% confluency, the cells were lifted using a PBS-based, enzyme-free Cell Dissociation Buffer. The cell suspension was counted using a Bright Line Haemocytometer and centrifuged at 1000 rpm for 5 min, and the supernatant discarded. The pellet was resuspended in ice-cold Tris-HCl, pH 7.4 (20 mM), with 1% phenylmethylsulfonyl fluoride (PMSF). […]
[^3H]-Astemizole binding in hERG-transfected HEK293 cells was performed in a […] total volume according to the following conditions: cells (~200,000 cells per assay tube, […]), [^3H]- astemizole (0.5 nM, […]), incubation buffer (10 mM HEPES, pH 7.4, 130 mM NaCl, 5 mM KCl, 0.8 mM MgCl2, 10 mM glucose, 0.1% BSA, 100 mL) for the total binding or drug compound ([…], 100 mL) for the single-point assay. Non-specific binding was determined using nonradiolabelled astemizole ([…], 100 mL). […] The radioactivity retained on the filters (pre-soaked in 0.5% PEI) was measured via counting in scintillation fluid (4 mL, Tri-Carb 1500 Packard; Emulsifier-Safe).

[6] = system: bloodstream form T. b. brucei (Lister 427); test: Anti-Trypanosoma alamarBlue assay; type: cell-based
Procedure: The bloodstream form T. b. brucei (Lister 427) was cultured in HMI-11 medium (Gibco) supplemented with 10% heat-inactivated FBS (Gibco), at 37 °C in a humidified 5% CO2 environment.
The EC50 values were determined using the in vitro alamarBlue assay. T. b. brucei parasites (2 × 10^4 cells per mL), were seeded into serial dilutions of the test compounds to a final volume of 200 μL and incubated for 48 h, after which 20 μL of 0.49 mM resazurin dye (Sigma-Aldrich, St. Louis, MO, USA) was added and the cells were incubated for a further 24 h. The reduction of resazurin was measured using a fluorimeter (FLUOstar Optima, BMG Labtech, Ortenberg, Germany) at 544 nm excitation and 590 nm emission wavelengths. The EC50 values were determined using Prism 5 software (GraphPad, San Diego, CA, USA). All experiments were carried out on at least three independent occasions.

[7] = LUC1, intracellular amastigotes, 72 h post-infection, mean of 3 experiments

T1 sequence (Q12809 whole entry): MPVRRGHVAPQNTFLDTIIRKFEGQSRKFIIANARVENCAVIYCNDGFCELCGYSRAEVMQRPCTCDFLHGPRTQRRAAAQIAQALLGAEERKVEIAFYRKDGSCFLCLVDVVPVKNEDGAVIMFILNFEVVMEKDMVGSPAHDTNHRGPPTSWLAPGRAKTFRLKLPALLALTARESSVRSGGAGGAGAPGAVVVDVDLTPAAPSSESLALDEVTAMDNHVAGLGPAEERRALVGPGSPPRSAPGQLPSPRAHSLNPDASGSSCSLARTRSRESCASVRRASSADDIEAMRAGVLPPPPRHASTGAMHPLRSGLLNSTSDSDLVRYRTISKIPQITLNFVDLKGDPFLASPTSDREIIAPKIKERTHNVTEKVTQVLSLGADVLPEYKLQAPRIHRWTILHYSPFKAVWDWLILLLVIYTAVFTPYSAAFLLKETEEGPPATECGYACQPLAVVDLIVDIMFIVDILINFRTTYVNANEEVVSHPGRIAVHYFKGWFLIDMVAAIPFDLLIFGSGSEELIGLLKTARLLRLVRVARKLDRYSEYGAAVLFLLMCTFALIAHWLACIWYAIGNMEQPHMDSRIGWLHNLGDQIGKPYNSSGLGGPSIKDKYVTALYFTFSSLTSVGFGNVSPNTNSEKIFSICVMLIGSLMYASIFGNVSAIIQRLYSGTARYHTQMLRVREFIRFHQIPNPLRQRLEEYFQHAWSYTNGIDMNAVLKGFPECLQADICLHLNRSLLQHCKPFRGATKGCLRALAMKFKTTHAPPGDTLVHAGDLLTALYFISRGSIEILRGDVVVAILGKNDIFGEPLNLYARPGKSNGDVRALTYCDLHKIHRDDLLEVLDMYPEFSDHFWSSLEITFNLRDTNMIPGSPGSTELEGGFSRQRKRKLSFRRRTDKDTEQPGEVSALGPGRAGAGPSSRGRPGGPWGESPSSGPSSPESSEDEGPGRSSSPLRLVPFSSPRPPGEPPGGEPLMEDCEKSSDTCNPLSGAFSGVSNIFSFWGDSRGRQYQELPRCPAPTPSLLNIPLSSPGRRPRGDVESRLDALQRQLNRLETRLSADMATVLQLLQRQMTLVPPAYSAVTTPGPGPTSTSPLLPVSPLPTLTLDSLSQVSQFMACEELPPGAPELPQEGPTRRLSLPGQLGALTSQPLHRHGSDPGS

Row | SMILES | Tm increase (genomic DNA from salmon) [°C] | Melting Temperature of gDNA + S-MGB complex (genomic DNA from salmon; gDNA alone 69.6 ± 0.3) [°C] | binding stoichiometry to double-stranded DNA by nMS [1] | binding stoichiometry to double-stranded DNA by nMS ([1]; listed as S-MGB-BP-3) | MIC (S. aureus ATCC 43300; ATCC43300, 18 h, 37 °C) [µM] | IC50 [2, 7] [µM] | T. b. brucei MIC [3] | ΔTm, DNA melting temperature increase (d(5′-CGCATATATGCG-3′)) [°C] | hERG % displacement of [3H]-astemizole (hERG ion channel [4]) | MIC (S. aureus ATCC 43300; ATCC43300, 18 h) [µM] | IC50 ([2]; LUC1, 72 h) [µM] | hERG % displacement of [3H]-astemizole (hERG ion channel [5]) [%] | MIC [6] [µM]
1 | Cn1cc(NC(=O)c2cc(NC(=O)c3ccc(/C=C/c4cnc5ccccc5c4)cc3)cn2C)cc1C(=O)NCCN1CCOCC1 [S-MGB-3, 1-methyl-N-[1-methyl-5-({[2-(4-morpholinyl)ethyl]amino}carbonyl)-1H-pyrrol-3-yl]-4-({4-[(E)-2-(3-quinolinyl)ethenyl]benzoyl}amino)-1H-pyrrole-2-carboxamide] | 12.6 | 82.2 ± 0.1 | selectively bind to double-stranded DNA as a dimer only | bind 2xS-MGB molecules |  |  |  |  |  |  |  |  | 
2 | N=C(N)c1ccc(OCCCCCOc2ccc(C(=N)N)cc2)cc1 [compound 1] |  |  |  |  | 50 (≈ 17 µg/mL) | 3.5 ± 0.1 | 0.78 * μM | 11 |  |  |  |  | 
3 | N=C(N)c1ccc(-c2cc3ccc(C(=N)N)cc3[nH]2)cc1 [compound 2] |  |  |  |  | 3.12 (≈ 0.865 µg/mL) | 5.7 ± 0.4 | 1.56 * μM | 15 | 58 ** % |  |  |  | 
4 | Cn1cc(NC(=O)c2cc(NC(=O)c3cc(NC=O)cn3C)cn2C)cc1C(=O)NCCC(=N)N [compound 3] |  |  |  |  |  |  | <0.19 * μM | 17 | 64 ** % | 0.78 (≈ 0.376 µg/mL) | 5.1 ± 0.7 |  | 
5 | COc1cccc(/C=C/c2ccc(C(=O)Nc3cc(C(=O)Nc4cc(C(=O)NCC[N+]5([O-])CCOCC5)n(C)c4)n(C)c3)cc2)c1 [compound 206] |  |  |  |  | > 100 | 2.4 ± 0.3 |  | 1 |  |  |  | 44 | 6.25 (≈ 3.92 µg/mL)
6 | COc1ccc(/C=C/c2ccc(C(=O)Nc3cc(C(=O)Nc4cc(C(=O)NCC[N+]5([O-])CCOCC5)n(C)c4)n(C)c3)cn2)cc1 [compound 207] |  |  |  |  | > 100 | 3.1 ± 1 |  | 1 |  |  |  | 45 | 12.5 (≈ 7.85 µg/mL)
